We go through seven compounds from patent publication US9045415B2, “Targeting of EWS-FLI1 as anti-tumor therapy” (Georgetown University, priority 2006, dated 2015).

For data set [1], the target named is T1, recombinant EWS-FLI1 (Homo sapiens, UniProt Q01543+Q01844).
T1 sequence (Q01543 1-452): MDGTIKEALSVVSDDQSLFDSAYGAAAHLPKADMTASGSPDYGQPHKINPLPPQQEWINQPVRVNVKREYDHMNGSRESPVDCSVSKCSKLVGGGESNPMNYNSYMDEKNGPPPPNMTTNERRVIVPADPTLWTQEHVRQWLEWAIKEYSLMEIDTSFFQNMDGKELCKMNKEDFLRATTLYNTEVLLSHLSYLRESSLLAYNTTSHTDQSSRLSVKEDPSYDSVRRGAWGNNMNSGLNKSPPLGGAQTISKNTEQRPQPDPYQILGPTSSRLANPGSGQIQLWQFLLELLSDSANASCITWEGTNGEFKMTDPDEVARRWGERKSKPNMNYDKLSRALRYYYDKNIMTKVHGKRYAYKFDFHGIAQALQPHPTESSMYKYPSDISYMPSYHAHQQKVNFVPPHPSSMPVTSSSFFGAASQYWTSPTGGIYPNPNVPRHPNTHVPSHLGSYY
T1 sequence (Q01844 1-656): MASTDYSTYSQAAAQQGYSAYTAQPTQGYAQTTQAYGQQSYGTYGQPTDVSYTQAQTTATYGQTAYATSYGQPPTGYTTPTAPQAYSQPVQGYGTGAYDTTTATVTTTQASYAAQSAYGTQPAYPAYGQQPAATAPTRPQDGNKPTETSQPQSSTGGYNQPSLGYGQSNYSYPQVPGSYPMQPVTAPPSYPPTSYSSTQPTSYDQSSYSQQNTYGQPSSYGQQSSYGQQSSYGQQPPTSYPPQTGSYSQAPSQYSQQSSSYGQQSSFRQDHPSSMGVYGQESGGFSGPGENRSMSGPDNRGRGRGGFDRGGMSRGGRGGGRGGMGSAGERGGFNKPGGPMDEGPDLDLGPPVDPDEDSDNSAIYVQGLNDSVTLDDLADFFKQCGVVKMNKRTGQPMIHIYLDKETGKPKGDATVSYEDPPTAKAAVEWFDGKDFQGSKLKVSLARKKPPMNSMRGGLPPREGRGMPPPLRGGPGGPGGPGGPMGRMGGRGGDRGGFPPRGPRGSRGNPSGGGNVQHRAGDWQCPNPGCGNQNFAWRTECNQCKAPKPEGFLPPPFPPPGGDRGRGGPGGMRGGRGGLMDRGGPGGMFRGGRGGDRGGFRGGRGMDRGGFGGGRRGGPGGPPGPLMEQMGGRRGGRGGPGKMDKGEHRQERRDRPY
The data set is described as follows: Surface plasmon resonance (Biacore) binding to EWS-FLI1. Conditions: read-out: KD. Here is the method: Antp is conjugated to the amino terminal of all peptides used in these studies. Recombinant EWS-FLI1 (MW 55 kDa) was covalently linked to a CM5 chip at a density of 1200 RU, and E9RP (MW 4 kDa) was evaluated for binding. The E9RP analyte concentrations ranged from 0.03-30 μM, and all are shown in duplicate. E9RP bound to EWS-FLI1 with a KD of 4.0 μM.
An assay that will identify whether a peptide can disrupt RHA from interacting with EWS-FLI1 was developed. The Biacore device is a biosensor that utilizes surface plasmon resonance (SPR) to measure the strength of molecular interactions. SPR is the sensitive measurement of […] light based upon alterations of surface characteristics that change with molecules binding to a surface. The Biacore device combines SPR with a microfluidic system.
The KD of E9RP binding to EWS-FLI1 was calculated to be 4.0 μM (FIG. 4).
A surface plasmon resonance assay using the Biacore T100 was established with EWS-FLI1, prepared in our laboratory as previously published (Uren, A., Tcherkasskaya, O. & Toretsky, J. A. Recombinant EWS-FLI1 oncoprotein activates transcription. Biochemistry 43, 13579-13589 (2004)). DNA oligonucleotides were used to quality control the proper conformation of EWS-FLI1 on the surface of a CM5 chip. Small molecules obtained from the Developmental Therapeutics Program of the National Cancer Institute, NIH (http://dtp.nci.nih.gov/branches/dscb/repo_open.html) were prioritized based upon their molecular weight and solubility. An initial screening of molecules was performed at 1 or 10 μM compound, based on solubility. We used a model that compares the actual binding maximum (actual RU) with the theoretical binding maximum (RUtheor). […] Hits (RUactual to RUtheor of 0.7-2.0) were then reviewed by a team of medicinal chemists and those with structural potentials were selected for further study. Selected molecules were tested in vitro in a solution coimmunoprecipitation assay using recombinant EWS-FLI1 and GST-RHA (647-1075).
Background: Surface plasmon resonance follows binding to a sensor surface in real time, without labels.

The subject of data set [2] is TC32 cells. The data set can be described thus: Monolayer cell growth (MTT or WST), TC32. In kind it is cell-based. Conditions: TC32 monolayer, 10 μM. As to the method: (§1) In FIG. 13A, recombinant EWS-FLI1 was treated with NSC635437 for 30 minutes. GST-RHA (630-1020) was added and the complexes were then precipitated with antibody to EWS-FLI1 and Protein G beads. Resolved complexes showing the immunoprecipitated complex control without compound are in lanes 3 (0.1% DMSO) and 5 (0.01% DMSO). […] ESFT TC32 (◯) and neuroblastoma SK-N-AS (▪) were grown for 72 hours in the continuous presence of NSC635437. Cells were incubated in MTT reagent for 4 hours and the dried precipitate was dissolved isopropanol and the absorbance read at 570 nm. Each cell line was standardized to the growth of the DMSO control.
(§2) FIG. 30 provides data to show E9R peptide prevents EWS-FLI1 binding to RHA with specific detrimental effects upon ESFT growth and transformation. […] Scale bar equals 20 μm. […] Only expression of EGFP-E9R in TC71 reduced anchorage independent growth. […] Scale bar equals 20 μm.
FIG. 33 provides data showing YK-4-279 is potent and specific inhibitor of ESFT. […] Cell number was measured by MTT or WST reduction after seven days in culture. […] FIG. 33D cell lines expressing EWS-FLI1 compared to non-EWS-FLI1 malignant cell lines following 3 days in culture to establish the IC50 using WST assay. […] Graph plots level of fluorescence in treated divided by untreated lysate. […] Scale bar equals 200 μm.

Data set [3] deals with neuroblastoma SKNAS cells. The data set is described as follows: Monolayer cell growth, neuroblastoma. Format: cell-based. To be noted: SKNAS monolayer.
From the text: FIGS. 8A-E show E9RP inhibits ESFT cell growth. In FIGS. 8A and 8B, E9RP is the peptide region of RHA (SEQ ID NO:29) fused to the Penetratin peptide (from the Antennapedia homeodomain; SEQ ID NO:34) and contains amino-terminal fluorescein (FITC). […] Neither lipids nor electricity were used for transduction of peptides into cells. Confocal microscopy identified peptide throughout cells with nuclear uptake. Nuclear uptake was confirmed by DAPI staining. […] Cell lines were placed in 96-well plates with either vehicle alone (●), or E9RP (10 μM) on days 0, 3 and 5 (▴). No lipid or other transfection method was utilized. This represents two experiments with similar results. FIG. 8D depicts dose response of ESFT 1 to either wild-type or single amino-acid mutant peptides. (▪) wild-type E9RP, (E9R (SEQ ID NO:29) fused to the Penetratin peptide (SEQ ID NO:34)), (▾)(E9RP (P2A peptide (SEQ ID NO:30) fused to the Penetratin peptide (SEQ ID NO:34)), (▴)E9RP (D5A peptide (SEQ ID NO:31) fused to the Penetratin peptide (SEQ ID NO:34)). Growth normalized to treating cells with the 16 aa Antp sequence alone (SEQ ID NO:34). FIG. 8E is a comparison of wild-type versus mutant peptides in ESFT and NB cells.
as §1, §2

Data set [4] concerns ESFT cells TC71. The data set is described as follows: Xenografts of TC71 cells transfected with E9R expression plasmids. In kind it is in vivo, mice. To be noted: mutated control peptide vs wild-type. Here is the method: ESFT cells TC71 were transfected with pGE9R (wild-type sequence peptide (SEQ ID NO: 29)) or pGE9R-D5A (control, mutated peptide; D5A (SEQ ID NO: 31)). In FIG. 10A, fluorescent micrographs of transfected cells after 4 days in culture are presented. […] Bar equals 300 microns. In FIG. 10B, each group contains six mice. Mice legs were measured every 2-3 days. Tumors appeared in 2 weeks. The experiment was terminated after 26 days when the largest tumor caused the mouse to limp. Tumor volumes were calculated according to (D×d2/6)×π formula, where large diameter of tumor mass is D and small diameter is d. 2-way ANOVA analysis, followed by Bonferroni correction for multiple variables, the difference in the two growth curves was highly significant, p=0.016.
The ability of the E9R peptide sequence to prevent ESFT tumorigenesis in a pilot murine xenograft experiment was determined. As a control peptide, the same mutation that prevented wild-type RHA from binding to EWS-FLI1 (D827A, noted in the 10-mer peptide as E9R-D5A) was created. ESFT cells were transfected with either pGE9R or pGE9R-D5A by electroporation. A transfection efficiency of greater than 80% using fluorescent microscopy (FIG. 10A) was observed. […] Every two to three days, each animal's thigh was measured in three dimensions, and tumor volumes were calculated. […]

Read-outs that look alike come from different tables or passages of the source. No end group written: not given here. *: point of attachment. FITC = O=C1OC2(c3ccc(O)cc3Oc3cc(O)ccc32)c2ccc(NC(=S)*)cc21

For `O=C(CC1(O)C(=O)Nc2c(Cl)ccc(Cl)c21)c1ccc(O)cc1` (centres unmarked) [YK-4-289, 4,7-Dichloro-3-hydroxyl-3-[2-(4-hydroxyphenyl-2-oxoethyl)]-1,3-dihydroindol-2-one], the melting point (in general, the temperature of the solid-liquid transition) fell in the range of 240 to 242 °C. The Kd (usually the free concentration of one partner at which half of the binding sites on the other are occupied at equilibrium, for simple one-to-one binding) in data set [1] (FIG. 23 experiment) is 6.82 µM. Further, the Kd in data set [1] (FIG. 24 experiment) was found to be 9.3 µM. Consider `O=C(CC1(O)C(=O)N(Cc2ccccc2)c2c(Cl)ccc(Cl)c21)c1ccc(Cl)cc1` (centres unmarked) [YK-4-276, 1-Benzyl-4,7-dichloro-3-[2-(4-chlorophenyl-2-oxoethyl)]-3-hydroxyl-1,3-dihydroindol-2-one], for which the melting point lay within 154 to 156 °C. The Kd in data set [1] (FIG. 24 experiment) came out at 10.2 µM. Consider `Nc1ccc(C(=O)CC2(O)C(=O)Nc3c(Cl)ccc(Cl)c32)cc1` (centres unmarked) [YK-4-284, 3-[2-(4-Aminophenyl-2-oxoethyl)]-4,7-dichloro-3-hydroxyl 1,3-dihydroindol-2-one], for which the melting point lay within 240 to 243 °C.

As to “[FITC]-RQIKIWFQNRRMKWKKPPPLAAVIEA ({FITC}-RQIKIWFQNRRMKWKKPPPLAAVIEA) [E9R(D5A), Antennapedia-E9R-D5A, mutated control peptide, reference compound]”, the “ESFT cell growth with fluorescein conjugated peptides” value in data set [2] is “neither the D5A mutated control nor antennapedia peptides alone reduced ESFT cell growth”. For the same compound, in data set [3], the “growth of neuroblastoma cells with fluorescein conjugated peptides” value is “slight increase”.

For `O=C(CC1(O)C(=O)Nc2c(Cl)ccc(Cl)c21)c1ccccc1` (centres unmarked) [YK-4-285, 4,7-Dichloro-3-hydroxyl-3-(2-oxo2-phenylethyl)-1,3-dihydroindol-2-one], the melting point fell in the range of 198 to 200 °C. As for “PPPLAAVIEA [E9R-D5A, control, mutated peptide D5A, expressed from pGE9R-D5A, reference compound]”, the “tumor take-rate and rate of growth” value in data set [4] is “greater”. In the case of `Cc1ccc(C(=O)CC2(O)C(=O)Nc3c(Cl)ccc(Cl)c32)cc1` (centres unmarked) [YK-4-280, 4,7-Dichloro-3-hydroxyl-3-(2-oxo-2-p-tolylethyl)-1,3-dihydroindol-2-one], the melting point lay in the range of 189 to 192 °C.
